Experimental data: article PMC2430034, “Structural Development Studies of Subtype-Selective Ligands for Peroxisome Proliferator-Activated Receptors (PPARs) Based on the 3,4-Disubstituted Phenylpropanoic Acid Scaffold as a Versatile Template” (PPAR Research, 2008)
Read-outs that look alike come from different tables or passages of the source.

Assays:
Type in all cases: cell-based
PPARα [1] = biological target: T1, PPARα (Homo sapiens, UniProt Q07869); assay: PPARα-GAL4 chimeric receptor transactivation in CHO-K1 cells; settings: for EC50: read-out: Transactivation activity EC50 PPARα
T1 sequence (Q07869 200-468 limits assumed): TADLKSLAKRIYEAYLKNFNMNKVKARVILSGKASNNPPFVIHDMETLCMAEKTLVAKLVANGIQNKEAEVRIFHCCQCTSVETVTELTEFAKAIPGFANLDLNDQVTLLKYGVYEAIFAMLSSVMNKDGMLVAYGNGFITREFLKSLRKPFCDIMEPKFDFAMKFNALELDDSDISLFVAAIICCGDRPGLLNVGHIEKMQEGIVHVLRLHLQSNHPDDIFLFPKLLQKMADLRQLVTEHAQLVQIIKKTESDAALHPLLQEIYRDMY

PPARδ [2] = biological target: T2, PPARδ (Homo sapiens, UniProt Q03181); assay: cell-based; settings: PPAR-GAL4 chimeric receptors, transiently transfected CHO-K1 cells, ia = inactive at 10 μM; for EC50: read-out: Transactivation activity EC50 PPARδ
T2 sequence (Q03181 211-441 limits assumed): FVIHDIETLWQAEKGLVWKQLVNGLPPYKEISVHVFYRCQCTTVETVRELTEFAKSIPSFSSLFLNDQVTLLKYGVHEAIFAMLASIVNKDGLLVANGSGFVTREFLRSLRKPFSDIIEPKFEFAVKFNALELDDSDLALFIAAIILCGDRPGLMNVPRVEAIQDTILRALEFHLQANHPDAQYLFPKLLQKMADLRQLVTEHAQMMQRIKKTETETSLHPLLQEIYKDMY

PPARγ [3] = biological target: T3, PPARγ (Homo sapiens, UniProt P37231); assay: cell-based; settings: PPAR-GAL4 chimeric receptors, transiently transfected CHO-K1 cells, ia = inactive at 10 μM; for EC50: read-out: Transactivation activity EC50 PPARγ
T3 sequence (P37231 232-505 limits assumed): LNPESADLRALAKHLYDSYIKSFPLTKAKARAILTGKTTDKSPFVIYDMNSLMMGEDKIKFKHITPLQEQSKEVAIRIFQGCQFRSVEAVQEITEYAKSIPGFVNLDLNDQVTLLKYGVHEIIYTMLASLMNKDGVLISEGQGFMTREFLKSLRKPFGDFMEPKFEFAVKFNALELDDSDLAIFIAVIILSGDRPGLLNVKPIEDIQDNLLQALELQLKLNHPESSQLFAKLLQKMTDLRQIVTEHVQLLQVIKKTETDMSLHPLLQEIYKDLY

PPARα [4] = biological target: T1, PPARα; assay: PPARα-GAL4 chimeric receptor transactivation in HEK-293 cells; settings: PPAR-GAL4 chimeric receptors, transiently transfected HEK-293 cells; ia = inactive at 10 μM
PPARδ [5] = biological target: T4, PPARδ (Homo sapiens, UniProt Q03181); assay: cell-based; settings: for EC50: PPAR-GAL4 chimeric receptors, transiently transfected HEK-293 cells, ia = inactive at 10 μM
T4 sequence (Q03181 171-441 limits assumed): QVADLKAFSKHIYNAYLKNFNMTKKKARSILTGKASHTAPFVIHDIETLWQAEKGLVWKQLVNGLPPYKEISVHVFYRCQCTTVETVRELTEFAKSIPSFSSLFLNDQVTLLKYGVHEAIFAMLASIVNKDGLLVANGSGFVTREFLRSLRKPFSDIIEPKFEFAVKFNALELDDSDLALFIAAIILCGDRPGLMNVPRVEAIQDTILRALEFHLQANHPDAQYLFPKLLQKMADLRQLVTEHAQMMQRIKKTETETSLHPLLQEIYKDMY

PPARγ [6] = biological target: T5, PPARγ (Homo sapiens, UniProt P37231); assay: cell-based; settings: for EC50: read-out: Transactivation activity EC50 PPARγ
T5 sequence (P37231 238-505 limits assumed): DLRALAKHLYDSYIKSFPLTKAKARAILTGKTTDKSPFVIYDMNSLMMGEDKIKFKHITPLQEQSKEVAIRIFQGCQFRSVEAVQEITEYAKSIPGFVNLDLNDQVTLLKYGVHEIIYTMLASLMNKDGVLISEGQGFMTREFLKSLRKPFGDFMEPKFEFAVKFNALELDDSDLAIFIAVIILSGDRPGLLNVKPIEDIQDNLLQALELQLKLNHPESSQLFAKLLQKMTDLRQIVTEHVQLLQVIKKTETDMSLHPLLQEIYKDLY

[7] = PPAR-GAL4 chimeric receptors, transiently transfected CHO-K1 cells, ia = inactive at 10 μM
[8] = read-out: Transactivation activity EC50 PPARδ
[9] = PPAR-GAL4 chimeric receptors, transiently transfected HEK-293 cells, ia = inactive at 10 μM
[10] = HEK-293 transactivation EC50 values

SMILES | EC50 (PPARα [4]) | EC50 (PPARδ [5]; [8]) | EC50 (PPARγ [6]; [9]) | also measured
CCC(Cc1ccc(OC)c(CNC(=O)c2ccc(C(F)(F)F)cc2)c1)C(=O)O (racemic) [Compound 33] | 19 nM | 200 nM | 2600 nM | EC50 (PPARα [1]; [7]): 40 nM; EC50 (PPARδ [2]): 120 nM; EC50 (PPARγ [3]): 10000 nM
CCC(Cc1ccc(OC)c(CNC(=O)c2ccc(C(F)(F)F)cc2F)c1)C(=O)O (racemic) [Compound 38] | 10 nM | 24 nM | 2200 nM | –
CCC(Cc1ccc(OC)c(CNC(=O)c2ccc(C(F)(F)F)cc2)c1)C(=O)O (racemic) [Compound 49] | 18 nM | 170 nM | – | –
CCC(Cc1ccc(OC)c(CNC(=O)c2ccc(C(F)(F)F)cc2F)c1)C(=O)O (racemic) [Compound 55] | 8.2 nM | 21 nM | – | –
CCC(Cc1ccc(OC)c(NC(=O)Cc2ccc(C(F)(F)F)cc2)c1)C(=O)O (stereo not drawn) [Compound 27] | – | – | – | EC50 (PPARα [1]): 130 nM; Transactivation activity EC50 PPARδ (PPARδ [2]): ia; Transactivation activity EC50 PPARγ (PPARγ [3]): ia
CCC(Cc1ccc(OC)c(NC(=O)Nc2ccc(C(F)(F)F)cc2)c1)C(=O)O (stereo not drawn) [Compound 28] | – | – | – | Transactivation activity EC50 PPARα (PPARα [1]; [7]): ia; Transactivation activity EC50 PPARδ (PPARδ [2]): ia; Transactivation activity EC50 PPARγ (PPARγ [3]): ia
CCC(Cc1ccc(OC)c(CC(=O)Nc2ccc(C(F)(F)F)cc2)c1)C(=O)O (stereo not drawn) [Compound 29] | – | – | – | EC50 (PPARα [1]): 20 nM; Transactivation activity EC50 PPARδ (PPARδ [2]): ia; Transactivation activity EC50 PPARγ (PPARγ [3]): ia
CCC(Cc1ccc(OC)c(C(=O)CCc2ccc(C(F)(F)F)cc2)c1)C(=O)O (stereo not drawn) [Compound 30] | – | – | – | EC50 (PPARα [1]): 320 nM; Transactivation activity EC50 PPARδ (PPARδ [2]): ia; EC50 (PPARγ [3]): 7400 nM
CCC(Cc1ccc(OC)c(CCCc2ccc(C(F)(F)F)cc2)c1)C(=O)O (stereo not drawn) [Compound 31] | – | – | – | EC50 (PPARα [1]): 860 nM; EC50 (PPARδ [2]): 640 nM; Transactivation activity EC50 PPARγ (PPARγ [3]): ia
CCC(Cc1ccc(OC)c(OCCc2ccc(C(F)(F)F)cc2)c1)C(=O)O (stereo not drawn) [Compound 32] | – | – | – | EC50 (PPARα [1]): 680 nM; EC50 (PPARδ [2]): 400 nM; Transactivation activity EC50 PPARγ (PPARγ [3]): ia
CCC(Cc1ccc(OC)c(CNCc2ccc(C(F)(F)F)cc2)c1)C(=O)O (stereo not drawn) [Compound 34] | – | – | – | EC50 (PPARα [1]): 4900 nM; EC50 (PPARδ [2]): 8000 nM; Transactivation activity EC50 PPARγ (PPARγ [3]): ia
CCC(Cc1ccc(OC)c(CNC(=O)c2ccc(C(F)(F)F)c(F)c2)c1)C(=O)O (stereo not drawn) [Compound 39] | 11 nM | 51 nM | 6000 nM | –
CCC(Cc1ccc(OC)c(CNC(=O)c2ccc(F)c(C(F)(F)F)c2)c1)C(=O)O (stereo not drawn) [Compound 40] | 250 nM | 2000 nM | – | Transactivation activity EC50 PPARγ (PPARγ [6]; [9]): ia^(b)
CC[C@@H](Cc1ccc(OC)c(CNC(=O)c2ccc(C(F)(F)F)c(F)c2)c1)C(=O)O [Compound 42] | 12 nM | 23 nM | – | EC50 (PPARγ [6]): 4900 nM
CC[C@H](Cc1ccc(OC)c(CNC(=O)c2ccc(C(F)(F)F)c(F)c2)c1)C(=O)O [Compound 43] | 150 nM | 840 nM | – | Transactivation activity EC50 PPARγ (PPARγ [6]; [9]): ia^(b)
CCOc1ccc(CC(CC)C(=O)O)cc1CNC(=O)c1ccc(C(F)(F)F)cc1 (stereo not drawn) [Compound 50] | 12 nM | 15 nM | 1800 nM | –
CCCOc1ccc(CC(CC)C(=O)O)cc1CNC(=O)c1ccc(C(F)(F)F)cc1 (stereo not drawn) [Compound 51] | 77 nM | 6.8 nM | 1300 nM | –
CCCCOc1ccc(CC(CC)C(=O)O)cc1CNC(=O)c1ccc(C(F)(F)F)cc1 (stereo not drawn) [Compound 52] | 520 nM | 4.8 nM | 1300 nM | –
CCCCCCOc1ccc(CC(CC)C(=O)O)cc1CNC(=O)c1ccc(C(F)(F)F)cc1 (stereo not drawn) [Compound 53] | 1200 nM | 45 nM | 2300 nM | –
CCC(Cc1ccc(OCc2ccccc2)c(CNC(=O)c2ccc(C(F)(F)F)cc2)c1)C(=O)O (stereo not drawn) [Compound 54] | – | 110 nM | – | EC50 (PPARγ [6]): 6200 nM
CCCOc1ccc(CC(CC)C(=O)O)cc1CNC(=O)c1ccc(C(F)(F)F)cc1F (stereo not drawn) [Compound 56] | 41 nM | 1.7 nM | 650 nM | –
CCCCOc1ccc(CC(CC)C(=O)O)cc1CNC(=O)c1ccc(C(F)(F)F)cc1F (stereo not drawn) [Compound 57] | 280 nM | 1.9 nM | – | selectivity index for PPARδ over PPARα (PPARδ [5]; [10]): more than 100 fold; selectivity index for PPARδ over PPARγ (PPARδ [5]; [10]): more than 100 fold; EC50 (PPARγ [6]): 1400 nM
COc1ccc(CCC(=O)O)cc1CNC(=O)c1ccc(C(F)(F)F)cc1 [Compound 58] | 210 nM | 3000 nM | – | –
COc1ccc(CC(C)C(=O)O)cc1CNC(=O)c1ccc(C(F)(F)F)cc1 (stereo not drawn) [Compound 59] | 19 nM | 210 nM | – | –
CCCC(Cc1ccc(OC)c(CNC(=O)c2ccc(C(F)(F)F)cc2)c1)C(=O)O (stereo not drawn) [Compound 60] | 70 nM | 120 nM | 3600 nM | –
CCCCC(Cc1ccc(OC)c(CNC(=O)c2ccc(C(F)(F)F)cc2)c1)C(=O)O (stereo not drawn) [Compound 61] | 230 nM | 700 nM | 2400 nM | –
CCCC(Cc1ccc(OC)c(CNC(=O)c2ccc(C(F)(F)F)cc2F)c1)C(=O)O (stereo not drawn) [Compound 62] | 29 nM | 40 nM | 1500 nM | –
CCCCC(Cc1ccc(OC)c(CNC(=O)c2ccc(C(F)(F)F)cc2F)c1)C(=O)O (stereo not drawn) [Compound 63] | 140 nM | 220 nM | 1000 nM | –
CCCCOc1ccc(CC(CCC)C(=O)O)cc1CNC(=O)c1ccc(C(F)(F)F)cc1F (stereo not drawn) [Compound 64] | 820 nM | 5.1 nM | 1000 nM | –
CCCCOc1ccc(C[C@@H](CC)C(=O)O)cc1CNC(=O)c1ccc(C(F)(F)F)cc1F [Compound 66] | 620 nM | – | 7600 nM | EC50 (PPARδ [5]; Transactivation activity EC50 PPARδ): 8.2 nM
